Measurements reported in patent EP4800004A1, “ARYLALKYLAMINE COMPOUND, AND PREPARATION METHOD THEREFOR AND USE THEREOF” (Renhe Yikang Group Co., Ltd., priority 2024, dated 2025).

How the values were obtained:
human CaSR = target: T1, human CaSR (Homo sapiens, UniProt P41180); assay: In vitro CaSR conformational (allosteric) activation, intracellular Ca2+ change in hCaSR-CHO cells (Fluo-4 NW, FLIPR); assay type: cell-based; details: change in intracellular Ca2+ fluorescence intensity
T1 construct: expressed in transfected cells
T1 sequence (P41180 20-1078): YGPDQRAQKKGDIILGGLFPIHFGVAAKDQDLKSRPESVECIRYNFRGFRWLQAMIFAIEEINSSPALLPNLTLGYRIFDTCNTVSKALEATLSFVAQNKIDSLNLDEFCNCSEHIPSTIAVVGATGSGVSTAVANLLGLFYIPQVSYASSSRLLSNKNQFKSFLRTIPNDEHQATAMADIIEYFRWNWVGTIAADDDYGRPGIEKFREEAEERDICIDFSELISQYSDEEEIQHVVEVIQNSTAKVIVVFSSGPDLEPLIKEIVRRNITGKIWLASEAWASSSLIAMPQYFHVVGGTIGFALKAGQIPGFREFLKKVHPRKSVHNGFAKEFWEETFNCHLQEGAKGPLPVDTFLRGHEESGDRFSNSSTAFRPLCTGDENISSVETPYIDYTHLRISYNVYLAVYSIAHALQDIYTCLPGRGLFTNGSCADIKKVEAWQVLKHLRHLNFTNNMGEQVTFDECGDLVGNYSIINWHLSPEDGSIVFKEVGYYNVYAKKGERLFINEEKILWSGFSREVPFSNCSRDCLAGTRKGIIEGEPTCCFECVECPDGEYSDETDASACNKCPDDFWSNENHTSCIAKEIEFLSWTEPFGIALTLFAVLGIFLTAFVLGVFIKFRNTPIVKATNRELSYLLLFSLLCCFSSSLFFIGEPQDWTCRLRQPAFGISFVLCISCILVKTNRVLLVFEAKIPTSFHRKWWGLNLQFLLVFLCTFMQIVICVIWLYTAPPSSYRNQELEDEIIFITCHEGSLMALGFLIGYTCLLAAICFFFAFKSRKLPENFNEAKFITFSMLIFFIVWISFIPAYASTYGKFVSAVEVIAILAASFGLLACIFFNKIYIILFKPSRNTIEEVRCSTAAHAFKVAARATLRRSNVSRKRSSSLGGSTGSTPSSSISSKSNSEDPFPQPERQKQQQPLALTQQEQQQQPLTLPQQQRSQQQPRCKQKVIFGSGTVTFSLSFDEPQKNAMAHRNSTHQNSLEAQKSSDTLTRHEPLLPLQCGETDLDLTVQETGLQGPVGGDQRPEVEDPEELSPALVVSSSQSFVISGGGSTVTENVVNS
Description: The CaSR is a member of family C of G protein-coupled receptors (GPCR). Upon activation by extracellular Ca^2+ or specific compounds, CaSR triggers an increase in intracellular Ca^2+ concentration. To evaluate the effect of compounds on the allosteric activation of CaSR, a CHO cell line stably transfected with human CaSR (hCaSR-CHO) was utilized. Changes in intracellular Ca^2+ concentration were measured as a key indicator to assess the conformational activation of CaSR.
• 1. Preparation Before Plate Spreading: Twelve hours prior to cell spreading, a 384-well cell culture plate was coated with 0.1 mg/mL polylysine. • 2. Cell Spreading: Digested hCaSR-CHO cells were resuspended in complete medium, counted using a cell counter, and adjusted to a density of 5 × 10^5 cells/mL. A volume of 25 µL of cell suspension was inoculated into each well. After inoculation, the cells were incubated at 37 °C in a 5% CO2 incubator for 18 h. • 3. Preparation of Compound Test Solution: The test compounds were diluted to the required concentrations (10 µM, 2 µM, 400 nM, 80 nM, 16 nM, 3.2 nM, and 0.64 nM) and added to a 384-well spiked plate. Since the cell culture plate already contained 25 µL of Fluo-4 NW assay reagent and the instrument was set to deliver 20 µL of the system, the compound concentrations in the spiked plate were 2.25 times the actual assay concentrations. For example, […]. • 4. Preparation of Assay Reagents: According to the instructions of the Fluo-4 NW Calcium Assay Kit (Thermo, F36206), 1 mL of assay buffer was added to Component B to prepare a 250 mM probenecid solution. 100 µL of the probenecid solution was added to 10 mL of assay buffer and mixed thoroughly. Component A was added to the mixture to prepare a 1X dye loading solution. • 5. Fluorescent Dye Addition: The complete culture medium was discarded, and 25 µL of the 1X dye loading solution was added to the 384-well plate using a Multidrop automatic dispenser. The plate was incubated at 37 °C for 30 min in the dark, then transferred to room temperature for an additional 30 min. The plate was transferred to the FLIPER Tetra instrument (Molecular Devices). • 6. Data Acquisition: After adding 20 µL of the compound test solution, the excitation wavelength was set to 470-495 nm, and the emission was detected at 515-575 nm. The instrument's quality control board was used to ensure no errors before initiating detection. The detection duration was 660 seconds, and the raw data were exported at the end of the reading. • 7. Data Processing: The change in fluorescence intensity, representing intracellular calcium signals, was calculated by subtracting the minimum fluorescence value (average of 14-21 seconds) from the maximum fluorescence value (average of 40-80 seconds) after compound addition. Using GraphPad Prism 8.0, the EC50 values of individual compounds were determined by plotting the compound concentration on the x-axis and the change in fluorescence intensity on the y-axis.

[1] = system: parathyroid hormone (PTH); assay: In vivo inhibition of blood PTH concentration in five-sixths nephrectomy hyperparathyroidism model rats (ELISA); details: PTH reduction at 1 hour post-administration compared with baseline PTH concentration at 0 hour; single dose by oral gavage; male SD rats, five-sixths nephrectomy plus special diet
From the text: Male SD rat models of hyperparathyroidism were constructed by five-sixths nephrectomy plus a special diet. Blood parathyroid hormone (PTH) level was used as the endpoint. ELISA was applied to determine the changes in plasma PTH concentration following compound treatment, thereby assessing the in vivo activity of the compound.
• 1. Model Construction: Specific pathogen-free (SPF)-grade male SD rats aged 7-8 weeks were used. The rats were acclimatized with normal feed for 1 week. Two-thirds of the left kidney was removed, and the rats were allowed to recover with normal feed for 1 week. Subsequently, the right kidney was removed, and the rats were allowed to recover with normal feed for an additional week. The rats were then fed a special diet (0.5% calcium and 1.2% total phosphorus) for 2 weeks. • 2. Detection and Grouping: Approximately 300 µL of blood was collected from the tail vein into a coagulation-promoting tube, left at room temperature for 30 minutes, and centrifuged at 12,000 rpm for 3 minutes to obtain serum samples. The concentration of intact PTH (1-84) in the serum was detected using the MicroVue Intact PTH EIA-96 Test (Quidel, catalog No. 60-2500). The rats were grouped based on their PTH concentration levels, ensuring that the mean PTH concentration in each group was approximately the same. • 3. Administration and Activity Testing: A single dose of the compound was administered by oral gavage. Blood samples were collected before and after administration, and serum was obtained using the method described in step 2. PTH levels were measured using ELISA.

[2] = Rat liver microsome stability test; assay type: in vitro ADME; details: rat liver microsomes, PBS pH 7.4, 37 °C, maximum incubation time 60 minutes
Description: Rat liver microsomes at a defined concentration, testosterone (positive control), tolbutamide (internal standard), the test compounds, and PBS (pH 7.4) were incubated at 37 °C. The reaction was quenched with methanol at 0, 5, 10, 20, 30, and 60 min, respectively. The samples were pretreated and analyzed using LC-MS. Data processing involved plotting the ratio of the peak area of the test compound to that of the internal standard (y-axis) against time (x-axis). The half-life (t1/2) was calculated from the data. Table 3. Stability data of compounds in rat liver microsomes.

[3] = Pharmacokinetic study in SD rats; assay type: in vivo; details: Sprague-Dawley, rat, plasma, male SD rats, single dose via oral gavage; for bioavailability: relative to Evocalcet (100)
Description: Animal Information: Male Sprague-Dawley (SD) rats, aged 7-8 weeks, were used. Each group consisted of 3-5 rats.
Dosing Information: The rats were fasted for more than 12 hours prior to administration. A single dose was administered via oral gavage.
Blood Sampling Time Points: Blood samples were collected from the tail vein before administration and at 0.25, 0.5, 1, 2, 4, 6, 8, and 24 hours post-administration. A volume of 100 µL of blood was collected at each time point.
Sample Processing and Storage: The blood samples were transferred into 1.5 mL microcentrifuge tubes, with 50 µL per tube (two tubes per sample). Centrifugation was completed within 2 hours. Whole blood samples were kept on ice prior to centrifugation. Centrifugation was performed at 4000 rpm, 2-8°C, for 10 minutes. After collecting the supernatant, it was stored at -80°C or below if not analyzed immediately.
Column: An InfinityLab Poroshell 120 SB-C18 column (2.1 × 100 mm, 2.7 µm) was used. Column Temperature: The temperature was maintained at 30°C. Flow Rate: The flow rate was set at 0.3 mL/min. Run Time: The total run time was 9.5 minutes. Post-run Time: A post-run time of 2 minutes was applied. Injection Volume: An injection volume of 2 µL was used. Mobile Phase: A mixture of methanol and 0.1% formic acid was employed as the mobile phase. Gradient Elution: Gradient elution was performed according to the table below.
Blood Sample Processing: 50 µL of plasma sample was aliquoted, and 25 µL of internal standard solution was added. The mixture was vortexed for 30 seconds. Then, 175 µL of methanol was added to precipitate proteins, and the mixture was vortexed again. The samples were centrifuged at 12,000 rpm for 10 minutes. Subsequently, 100 µL of the supernatant was collected and mixed with 300 µL of water. The final supernatant was injected for analysis.

Structure (SMILES)	EC50 (human CaSR)	half-life [2]	bioavailability [3]	AUC(0-inf) [3]	Cmax [3]	Tmax [3]	half-life [3]	The reduction efficiency (%) [1]
C[C@@H](N[C@H]1CCN(c2ccc(CC(=O)O)c(F)c2)C1)c1cccc2ccccc12 [Compound 1, 2-(2-fluoro-4-((S)-3-(((R)-1-(naphthalen-1-yl)ethyl)amino)pyrrolidin-1-yl)phenyl)acetic acid]	39.7 nM	–	–	–	–	–	–	–
C[C@@H](N[C@H]1CCN(c2ccc(CC(=O)O)cc2F)C1)c1cccc2ccccc12 [Compound 2, 2-(3-fluoro-4-((S)-3-(((R)-1-(naphthalen-1-yl)ethyl)amino)pyrrolidin-1-yl)phenyl)acetic acid]	27.1 nM	> 1 h	136%	34700 ± 2710 ng·h/mL	3550 ± 283 ng/mL	0.65 ± 0.34 h	5.91 ± 0.21 h	91%
Cc1cc(CC(=O)O)ccc1N1CC[C@H](N[C@H](C)c2cccc3ccccc23)C1 [Compound 3, 2-(3-methyl-4-((S)-3-(((R)-1-(naphthalen-1-yl)ethyl)amino)pyrrolidin-1-yl)phenyl)acetic acid]	20.7 nM	> 1 h	144%	36600 ± 1970 ng·h/mL	3770 ± 584 ng/mL	0.55 ± 0.27 h	5.17 ± 0.38 h	93%
Cc1cc(N2CC[C@H](N[C@H](C)c3cccc4ccccc34)C2)ccc1CC(=O)O [Compound 4, 2-(2-methyl-4-((S)-3-(((R)-1-(naphthalen-1-yl)ethyl)amino)pyrrolidin-1-yl)phenyl)acetic acid]	52 nM	–	–	–	–	–	–	–
C[C@@H](N[C@H]1CCN(c2cc(F)c(CC(=O)O)c(F)c2)C1)c1cccc2ccccc12 [Compound 5, 2-(2,6-difluoro-4-((S)-3-(((R)-1-(naphthalen-1-yl)ethyl)amino)pyrrolidin-1-yl)phenyl)acetic acid]	39.8 nM	> 1 h	–	–	–	–	–	81%

Second part, led by results:

EC50 (human CaSR)	half-life [2]	bioavailability [3]	AUC(0-inf) [3]	Cmax [3]	Tmax [3]	half-life [3]	Structure (SMILES)	The reduction efficiency (%) [1]
42.5 nM	–	–	–	–	–	–	COc1cc(CC(=O)O)ccc1N1CC[C@H](N[C@H](C)c2cccc3ccccc23)C1 [Compound 6, 2-(3-methoxy-4-((S)-3-(((R)-1-(naphthalen-1-yl)ethyl)amino)pyrrolidin-1-yl)phenyl)acetic acid]	–
55.5 nM	–	–	–	–	–	–	COc1cc(N2CC[C@H](N[C@H](C)c3cccc4ccccc34)C2)ccc1CC(=O)O [Compound 7, 2-(2-methoxy-4-((S)-3-(((R)-1-(naphthalen-1-yl)ethyl)amino)pyrrolidin-1-yl)phenyl)acetic acid]	–
67.6 nM	> 1 h	100%	25400 ± 7360 ng·h/mL	2520 ± 212 ng/mL	1.15 ± 1.6 h	4.83 ± 0.39 h	C[C@@H](N[C@H]1CCN(c2ccc(CC(=O)O)cc2)C1)c1cccc2ccccc12 [Evocalcet, reference compound]	–
